Some test systems named below: A498 renal; HCC-2998 colon; HT29 colon; KM12 colon; MDA-MB-435; MDA-N; NCI-H226 lung; NCI/ADR-RES ovarian; OVCAR-3 ovarian; OVCAR-8 ovarian; SF-268 CNS; SF-295 CNS; SNB-75 CNS; T-47D breast; TK-10 renal; UACC-62 melanoma.
Holding throughout (assay): inhibition of tumour cell growth, NCI panel, 48 h

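Interpolation was linear, between the two tested concentrations surrounding the appropriate level; five concentrations were tested over 48 hours in 96-well plates. TGI: concentration producing complete growth inhibition.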

Consider `CCOC(=O)c1sc(=S)n(-c2ccc(Cl)cc2)c1-n1cc(-c2ccccc2)c(C#N)c1N`, for which the TGI in the assay with A498 renal was 53.9 µM; in the assay on HCC-2998 colon, above 100 µM; in the assay with HT29 colon it was above 100 µM; in the assay with KM12 colon it was above 100 µM; in the assay on MDA-MB-435 it was above 100 µM; in the assay on MDA-N, above 100 µM. Moreover, the TGI with NCI-H226 lung amounted to 43.5 µM; with NCI/ADR-RES ovarian, 47.1 µM; with OVCAR-3 ovarian, 32.6 µM; in the assay with OVCAR-8 ovarian, 27.1 µM; in the assay on SF-268 CNS, 8.6 µM; in the assay on SF-295 CNS, 33.6 µM. Also, the TGI in the assay on SNB-75 CNS was 53.6 µM; in the assay on T-47D breast it was 27.8 µM; with TK-10 renal it was 24.4 µM; in the assay with UACC-62 melanoma it was 85.9 µM.
In the case of `COC(=O)c1csc([C@@H](OC(=O)[C@H](C)[C@H](CCCC(C)(Cl)Cl)OC(=O)c2csc([C@H](O)CO)n2)C(C)C)n1`, the TGI in the assay with A498 renal turned out to be 32.7 µM; in the assay on HCC-2998 colon, 22.2 µM; with HT29 colon it was 36.8 µM; in the assay on KM12 colon it was 29.4 µM; in the assay with MDA-MB-435 it was 26.8 µM; in the assay with MDA-N, 21.3 µM. The TGI in the assay on NCI-H226 lung stood at 39.7 µM; with NCI/ADR-RES ovarian it was 45.4 µM; in the assay with OVCAR-3 ovarian, 30.8 µM; in the assay on OVCAR-8 ovarian, 22.4 µM; in the assay on SF-268 CNS, 34.8 µM; in the assay on SF-295 CNS, 29.1 µM. In addition, the TGI in the assay on SNB-75 CNS came to 11 µM; in the assay on T-47D breast, 36.5 µM; in the assay on TK-10 renal, 24.9 µM; with UACC-62 melanoma, 24.3 µM.
In the case of `CC(C)NC(=O)OCc1c2c(n(C)c1COC(=O)NC(C)C)-c1cc(Cl)c(Cl)cc1CC2`, the TGI in the assay on A498 renal is 18.7 µM; with HCC-2998 colon it was 32.7 µM; with HT29 colon, above 100 µM; in the assay on KM12 colon, 81.7 µM; in the assay on MDA-MB-435, above 100 µM; in the assay on MDA-N, above 100 µM. The TGI is above 100 µM in the assay with NCI-H226 lung; above 100 µM in the assay with NCI/ADR-RES ovarian; 82.8 µM with OVCAR-3 ovarian; above 100 µM in the assay on OVCAR-8 ovarian; above 100 µM with SF-268 CNS; above 100 µM with SF-295 CNS. Further, the TGI in the assay on SNB-75 CNS is 81.7 µM; with T-47D breast, above 100 µM; with TK-10 renal, 84.5 µM; in the assay with UACC-62 melanoma, above 100 µM.
For the molecule `O=C1C2=Cc3ccccc3OC2(O)Oc2cc3ccccc3cc21` (stereo not drawn), the TGI in the assay on A498 renal is above 100 µM; in the assay on HCC-2998 colon it was 74.9 µM; in the assay on HT29 colon it was above 100 µM; with KM12 colon, above 100 µM; with MDA-MB-435 it was above 100 µM; in the assay on MDA-N, above 100 µM. Moreover, the TGI with NCI-H226 lung, in the assay with NCI/ADR-RES ovarian, in the assay on OVCAR-3 ovarian, in the assay on OVCAR-8 ovarian, in the assay with SF-268 CNS and in the assay with SF-295 CNS was above 100 µM throughout. For the same molecule, the TGI in the assay on SNB-75 CNS was 73.2 µM; in the assay with T-47D breast, above 100 µM; in the assay with TK-10 renal, above 100 µM; with UACC-62 melanoma, above 100 µM.
In the case of `CC(C)(C)C1=C(Br)C(C(C)(C)C)OP1(=O)O` (stereo not drawn), the TGI with A498 renal, with HCC-2998 colon, in the assay with HT29 colon, in the assay on KM12 colon, in the assay on MDA-MB-435 and in the assay on MDA-N was above 100 µM each time. Besides, the TGI with NCI-H226 lung, in the assay with NCI/ADR-RES ovarian, in the assay on OVCAR-3 ovarian, in the assay with OVCAR-8 ovarian, in the assay with SF-268 CNS and in the assay on SF-295 CNS was above 100 µM in each case. For the same molecule, the TGI with SNB-75 CNS, with T-47D breast, with TK-10 renal and with UACC-62 melanoma was above 100 µM throughout.
Turning to `CC(C)(C)C1CCC(=O)/C(=C/CC2CC(=O)N(c3ccccc3)C(=O)C2)C1` (stereo not drawn), the TGI was 61.2 µM in the assay with A498 renal; 43.5 µM in the assay with HCC-2998 colon; 43.6 µM with HT29 colon; 33.6 µM in the assay with KM12 colon; 64.8 µM in the assay with MDA-MB-435; 66.9 µM in the assay with MDA-N. Besides, the TGI with NCI-H226 lung is 32 µM; with NCI/ADR-RES ovarian, 37.7 µM; in the assay on OVCAR-3 ovarian it was 47.7 µM; in the assay with OVCAR-8 ovarian, 39.8 µM; with SF-268 CNS, 47.1 µM; in the assay with SF-295 CNS, above 100 µM. Further, the TGI in the assay on SNB-75 CNS amounted to 53.3 µM; in the assay on T-47D breast, 48.6 µM; in the assay on TK-10 renal, 31.8 µM; in the assay with UACC-62 melanoma, 27.7 µM.
On to `CCOC(=O)/C=C(\C(=O)OCC)n1cc(C)c(=O)n(Cc2cn(CCCCOC(C)=O)nn2)c1=O`, for which the TGI in the assay on A498 renal worked out at 33 µM; with HCC-2998 colon, 34 µM; with HT29 colon, 21.1 µM; with KM12 colon, 33.3 µM; in the assay with MDA-MB-435, 28.6 µM; in the assay on MDA-N, 50.9 µM. Moreover, the TGI turned out to be 17.1 µM in the assay on NCI-H226 lung; 57 µM with NCI/ADR-RES ovarian; 31.5 µM in the assay with OVCAR-3 ovarian; 21.2 µM in the assay on OVCAR-8 ovarian; 28.4 µM with SF-268 CNS; 35.5 µM in the assay with SF-295 CNS. The TGI was 30.3 µM with SNB-75 CNS, above 47.5 µM with T-47D breast, 18.5 µM in the assay with TK-10 renal and 29.9 µM with UACC-62 melanoma.
Turning to `Cc1ccc(C(=O)O)c(/C=C2\Cc3ccc(C)cc3C2=O)c1`, the TGI with A498 renal, with HCC-2998 colon, with HT29 colon, with KM12 colon, in the assay with MDA-MB-435 and in the assay with MDA-N was above 100 µM each time. In addition, the TGI with NCI-H226 lung was 85.2 µM; in the assay on NCI/ADR-RES ovarian, above 100 µM; in the assay on OVCAR-3 ovarian it was above 100 µM; in the assay on OVCAR-8 ovarian, above 100 µM; in the assay with SF-268 CNS it was above 100 µM; in the assay with SF-295 CNS it was above 100 µM. Also, the TGI with SNB-75 CNS, in the assay on T-47D breast, with TK-10 renal and in the assay on UACC-62 melanoma was above 100 µM throughout.

The values above are taken from PubChem BioAssay (NCI).
